Experimental data: US4994485A, “Thio compounds having fungicidal activity” (Duphar International Research B.V., priority 1986, dated 1991)

Experiments:
Pyrenophora graminea = assay: In vitro test on activity against Pyrenophora graminea; format: cell-based; details: 48 hours, 20° C., read-out: % growth inhibition of the fungus
Procedure: In vitro test on activity against Pyrenophora graminea.
(§1) The compound to be tested is processed in a culture medium consisting of 1% by weight of glucose, 0.2% by weight of a yeast extract (marmite), 0.5% by weight of a protein (pepton), 2.5% by weight of agar-agar, and 95.8% by weight of water, in petri dishes in concentrations of 3 and 10 ppm. The petri dishes are inoculated with the plant-pathogenic fungus Pyrenophora graminea and then kept at a temperature of 20° C. After 48 hours the growth-inhibiting activity of the compounds is determined visually. For comparison, the known substance (b) (see EXAMPLE XV) is also tested.

Pythium splendens = assay: In vitro test on activity against Pythium splendens; format: cell-based; details: Globisporangium splendens, read-out: growth inhibition of the fungus
Fusarium culmorum [1] = assay: Protection of seedlings against plant pathogenic seed fungus by seed treatment (wheat); format: in vivo; details: wheat seed infested with Fusarium culmorum; 3 g composition (10% by weight in kaolin) per kg of seed; after three weeks, 8°-12° C.; untreated 67
Procedure: Test with respect to the protection of seedlings against a plant pathogenic seed fungus, namely Fusarium culmorum, by means of a seed treatment.
Wheat seed, infested with Fusarium culmorum, is treated with the substance to be tested in the form of a composi tion in a quantity of 3 g per kg of seed. The composition is obtained by pulverising the substance to be tested and then intimately mixing with kaolin in a concentration of 10% by weight. The seed thus treated is sown in a tray containing soil which is placed in a Wisconsin tank with a bottom temperature of 8°-12° C. After three weeks the number of emerged and healthy plants is determined. The emergence of healthy plants from untreated seed serves as control. For comparison, the known substances 2-methylsulphinyl-4-methyl-5-nitrothiazole (a), 2-methylsulphinyl-3-nitrothiophene (b) and 2-ethylsulphinyl-3-nitro-5-acetylthiophene (c) mentioned hereinbefore are also tested. In the examples, the numbers of the compounds refer to the specification.

Fusarium culmorum [2] = assay: In vitro test on activity against Fusarium culmorum; format: cell-based; details: read-out: growth inhibition of the fungus
Rhizoctonia solani = assay: In vitro test on activity against Rhizoctonia solani; format: cell-based; details: read-out: growth inhibition of the fungus
Procedure: as §1, with “in petri dishes in concentrations of 3 and 10 ppm.” left out
Compounds according to the invention are tested on Rhizoctonia solani in the same manner as described in EXAMPLE XIX.

Pythium spp. = assay: Protection of seedlings against plant-pathogenic soil fungus by seed treatment (beet); format: in vivo; details: after 3 weeks, 18°-22° C., untreated 72
Procedure: Test with respect to the protection of seedlings against a plant-pathogenicsoil fungus, namely Pythium spp., by means of a seed treatment.
The compounds to be tested are processed to compositions by pulverising them and then mixing them intimately with kaolin in the desired concentration (see Table B). Beet seed is treated with these compositions in a quantity of 6 g of composition per kg of seed and then sown in trays with soil which was seriously infested with Pythium spp. After 3 weeks in a glass-house at 18°-22° C. and a relative humidity of 70-100%, the percentage of non-emerged and diseased seedlings (damping-off) is determined. The results are recorded in Table B. For comparison, the known substance 2-methylsulphinyl-4-methyl-5-nitrothiazole(a) is also tested.

Leptosphaeria nodorum = assay: In vitro test on activity against Leptosphaeria nodorum; format: cell-based; details: Parastagonospora nodorum, read-out: growth inhibition of the fungus
Outline: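 Compounds were incorporated at 3 and 10 ppm into glucose/yeast extract/peptone agar plates inoculated with the fungus. Plates were held at 20 °C, and growth inhibition was scored visually after 48 h.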

[3] = system: soil-borne and seed-borne pathogenic micro-organisms; assay: Fungicidal activity in practice (general statement); details: in words
[4] = Acute oral toxicity (lethal dose) in male mice; details: mouse, in vivo, acute mortality, mg/kg of body weight
Procedure: Toxicity with respect to warm-blooded living beings.
The LD50 is determined by orally administering the substance to be tested to male mice and determining the acute mortality. In Table C below, the LD50 is recorded in mg/kg of body weight.
For comparison, the known compound (b) (see EXAMPLE XV) is also tested.

[5] = system: warm-blooded living beings; assay: Toxicity with respect to warm-blooded living beings (general statement); details: in words
[6] = 600 mg of active substance per kg of seed
[7] = 1200 mg of active substance per kg of seed

Row | Structure (SMILES) | inhibition at 3 ppm (Pyrenophora graminea) | inhibition at 10 ppm (Pyrenophora graminea) | inhibition at 10 ppm (Pythium splendens) | Percentage of emerged, healthy plants (Fusarium culmorum [1]) | inhibition at 30 ppm (Fusarium culmorum [2]) | inhibition at 30 ppm (Rhizoctonia solani) | percentage damping-off (Pythium spp.; [6]) | percentage damping-off (Pythium spp.; [7]) | inhibition at 30 ppm (Leptosphaeria nodorum) | activity [3] | LD50 [4] | toxicity with respect to warm-blooded living beings [5]
1 | C[S+]([O-])c1sc(C#N)c(Cl)c1C#N (stereo not drawn) [(3), 2-methylsulphinyl-3,5-dicyano-4-chlorothiophene] | 57% | 80% | ≥ 95% | 91% | ≥ 75% | ≥ 75% | 6% | 5% | ≥ 85% |  |  | 
2 | CC(=O)c1sc([S+](C)[O-])c(C#N)c1Cl (stereo not drawn) [(2), 2-methylsulphinyl-3-cyano-4-chloro-5-acetylthiophene] | 64% | 79% | ≥ 95% | 87% | ≥ 75% | ≥ 75% | 7% | 6% | ≥ 85% |  |  | 
3 | Cc1nc([S+](C)[O-])sc1[N+](=O)[O-] (stereo not drawn) [(a), 2-methylsulphinyl-4-methyl-5-nitrothiazole, reference compound] |  |  |  | 68% |  |  | 57% | 45% |  | insufficiently active |  | 
4 | CCCC[S+]([O-])c1sc(C#N)c(Cl)c1C#N (stereo not drawn) [(43), 2-n-butylsulphinyl-3,5-dicyano-4-chlorothiophene] |  | 72% | ≥ 95% |  | ≥ 75% | ≥ 75% |  |  | ≥ 85% |  | 246 mg/kg | 
5 | CC[S+]([O-])c1sc(C#N)c(OC)c1C#N (stereo not drawn) [(13), 2-ethylsulphinyl-3,5-dicyano-4-methoxythiophene] |  |  | ≥ 95% | 90% | ≥ 75% |  | 3% | 1% | ≥ 85% |  | 130 mg/kg | 
6 | CC[S+]([O-])c1sc(C#N)cc1C#N (stereo not drawn) [(8), 2-ethylsulphinyl-3,5-dicyanothiophene] | 49% | 72% | ≥ 95% | 92% |  |  | 16% | 12% |  |  | 119 mg/kg | 
7 | CC[S+]([O-])c1sc(C(C)=O)cc1[N+](=O)[O-] (stereo not drawn) [(c), 2-ethylsulphinyl-3-nitro-5-acetylthiophene] |  |  |  | 74% |  |  |  |  |  | leaves to be desired in practice |  | undesired toxicity
8 | CC[S+]([O-])c1sc(C(C)=O)c(N)c1C#N (stereo not drawn) [(10), 2-ethylsulphinyl-3-cyano-4-amino-5-acetylthiophene] |  |  | ≥ 95% | 98% |  |  | 10% | 9% | ≥ 85% |  | 141 mg/kg | 
9 | CC[S+]([O-])c1sc(C#N)c(Cl)c1C#N (stereo not drawn) [(7), 2-ethylsulphinyl-3,5-dicyano-4-chlorothiophene] | 59% | 83% | ≥ 95% | 98% | ≥ 75% |  | 17% | 17% | ≥ 85% |  | 400 mg/kg | 
10 | C[S+]([O-])c1sccc1[N+](=O)[O-] (stereo not drawn) [(b), 2-methylsulphinyl-3-nitrothiophene, reference compound] | 0% | 37% |  | 75% |  |  |  |  |  | leaves to be desired in practice | 31.6 mg/kg | undesired toxicity
11 | CCC[S+]([O-])c1sc(C#N)c(Cl)c1C#N (stereo not drawn) [(33), 2-n-propylsulphinyl-3,5-dicyano-4-chlorothiophene] |  | 83% | ≥ 95% |  | ≥ 75% | ≥ 75% |  |  | ≥ 85% |  | 246 mg/kg | 
